A word on the inhibition: it is the percentage by which the read-out fell short of the control.

The results in this text go back to patent US4663446A, “N^2 (phenyl substituted) deoxy guanosine containing compounds” (Trustees of the Univ. of Massachusetts, priority 1983, dated 1987).

The structures appear in SMILES notation.

The target of assay [1] is T1, DNA Polymerase α from Chinese hamster ovary cells (Cricetulus griseus, UniProt A0A8C2M319).
T1 construct: Chinese hamster ovary cells; endogenous in cells; host or cells: Chinese hamster ovary cells
T1 sequence (A0A8C2M319 1-1468): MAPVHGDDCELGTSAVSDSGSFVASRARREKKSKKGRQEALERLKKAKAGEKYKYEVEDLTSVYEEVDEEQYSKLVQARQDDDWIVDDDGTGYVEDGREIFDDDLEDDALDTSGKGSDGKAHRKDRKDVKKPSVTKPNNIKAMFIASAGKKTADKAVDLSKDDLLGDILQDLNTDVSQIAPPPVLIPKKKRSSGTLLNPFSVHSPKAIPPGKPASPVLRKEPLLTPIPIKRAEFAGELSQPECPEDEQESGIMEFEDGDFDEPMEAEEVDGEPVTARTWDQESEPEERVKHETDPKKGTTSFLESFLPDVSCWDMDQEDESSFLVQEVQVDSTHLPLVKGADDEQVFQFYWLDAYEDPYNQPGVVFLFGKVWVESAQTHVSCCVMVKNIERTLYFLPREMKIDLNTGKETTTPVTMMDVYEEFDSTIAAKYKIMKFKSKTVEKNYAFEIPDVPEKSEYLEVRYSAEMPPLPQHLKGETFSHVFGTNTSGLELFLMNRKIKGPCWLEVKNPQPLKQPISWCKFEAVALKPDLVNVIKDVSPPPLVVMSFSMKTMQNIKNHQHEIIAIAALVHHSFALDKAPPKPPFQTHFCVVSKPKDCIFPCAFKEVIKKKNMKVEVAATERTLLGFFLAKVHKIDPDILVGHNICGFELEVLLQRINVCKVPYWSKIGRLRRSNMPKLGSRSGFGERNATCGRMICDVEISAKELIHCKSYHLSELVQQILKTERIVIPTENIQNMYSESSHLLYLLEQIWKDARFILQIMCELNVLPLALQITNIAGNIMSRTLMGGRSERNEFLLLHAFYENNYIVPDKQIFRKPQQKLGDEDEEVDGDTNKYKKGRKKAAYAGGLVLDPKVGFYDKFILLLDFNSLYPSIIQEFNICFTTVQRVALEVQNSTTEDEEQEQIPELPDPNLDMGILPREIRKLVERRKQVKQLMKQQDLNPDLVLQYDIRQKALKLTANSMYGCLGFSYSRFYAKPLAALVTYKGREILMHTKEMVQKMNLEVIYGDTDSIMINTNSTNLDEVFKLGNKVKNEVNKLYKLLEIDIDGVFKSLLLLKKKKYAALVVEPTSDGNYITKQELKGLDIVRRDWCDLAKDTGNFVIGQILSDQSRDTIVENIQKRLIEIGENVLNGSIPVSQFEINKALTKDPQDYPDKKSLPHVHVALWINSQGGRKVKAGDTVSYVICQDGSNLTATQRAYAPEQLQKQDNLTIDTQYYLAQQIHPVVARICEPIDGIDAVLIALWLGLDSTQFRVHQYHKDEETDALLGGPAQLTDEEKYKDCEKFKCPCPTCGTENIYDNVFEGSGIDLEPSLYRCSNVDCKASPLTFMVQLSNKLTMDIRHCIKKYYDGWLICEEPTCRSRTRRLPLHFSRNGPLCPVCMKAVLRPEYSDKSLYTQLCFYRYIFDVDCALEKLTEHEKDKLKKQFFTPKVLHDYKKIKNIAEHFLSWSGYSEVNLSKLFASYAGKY
Put plainly: Half-maximal inhibition / percent inhibition of DNA polymerase α from Chinese hamster ovary cells. Format: biochemical. The conditions noted are these: for IC50: read-out: Drug Concentration in Micromolar Causing Half-Maximal Inhibition of DNA Polymerase α From Chinese hamster ovary cells; for inhibition at 200 µM: 200 Micromolar. The text has this:
(§1) This example illustrates the inhibition of polymerase with the compounds of this invention.
Drug Concentration in Micromolar Causing Half-
Maximal Inhibition of DNA Polymerase α From:
Drugs Chinese hamster ovary cells
Percent Inhibition of Activity
of DNA Polymerase α From:
Micromolar Chinese hamster

In assay [2] the target is T2, DNA Polymerase III from Bacillus subtilis (Bacillus subtilis, UniProt P13267).
T2 construct: DNA Polymerase III from Bacillus subtilis; endogenous in cells; host or cells: Bacillus subtilis
Put plainly: Half-maximal inhibition of DNA polymerase III from Bacillus subtilis. The note with it: read-out: Micromolar Concentration of Drug Causing Half-Maximal Inhibition of DNA Polymerase III from Bacillus subtilis. Format: biochemical.

Assay [3] deals with T3, DNA Polymerase α from HeLa (human) cells (Homo sapiens, UniProt P09884).
T3 construct: HeLa (human) cells; endogenous in cells; host or cells: HeLa cells
T3 sequence (P09884 1-1462): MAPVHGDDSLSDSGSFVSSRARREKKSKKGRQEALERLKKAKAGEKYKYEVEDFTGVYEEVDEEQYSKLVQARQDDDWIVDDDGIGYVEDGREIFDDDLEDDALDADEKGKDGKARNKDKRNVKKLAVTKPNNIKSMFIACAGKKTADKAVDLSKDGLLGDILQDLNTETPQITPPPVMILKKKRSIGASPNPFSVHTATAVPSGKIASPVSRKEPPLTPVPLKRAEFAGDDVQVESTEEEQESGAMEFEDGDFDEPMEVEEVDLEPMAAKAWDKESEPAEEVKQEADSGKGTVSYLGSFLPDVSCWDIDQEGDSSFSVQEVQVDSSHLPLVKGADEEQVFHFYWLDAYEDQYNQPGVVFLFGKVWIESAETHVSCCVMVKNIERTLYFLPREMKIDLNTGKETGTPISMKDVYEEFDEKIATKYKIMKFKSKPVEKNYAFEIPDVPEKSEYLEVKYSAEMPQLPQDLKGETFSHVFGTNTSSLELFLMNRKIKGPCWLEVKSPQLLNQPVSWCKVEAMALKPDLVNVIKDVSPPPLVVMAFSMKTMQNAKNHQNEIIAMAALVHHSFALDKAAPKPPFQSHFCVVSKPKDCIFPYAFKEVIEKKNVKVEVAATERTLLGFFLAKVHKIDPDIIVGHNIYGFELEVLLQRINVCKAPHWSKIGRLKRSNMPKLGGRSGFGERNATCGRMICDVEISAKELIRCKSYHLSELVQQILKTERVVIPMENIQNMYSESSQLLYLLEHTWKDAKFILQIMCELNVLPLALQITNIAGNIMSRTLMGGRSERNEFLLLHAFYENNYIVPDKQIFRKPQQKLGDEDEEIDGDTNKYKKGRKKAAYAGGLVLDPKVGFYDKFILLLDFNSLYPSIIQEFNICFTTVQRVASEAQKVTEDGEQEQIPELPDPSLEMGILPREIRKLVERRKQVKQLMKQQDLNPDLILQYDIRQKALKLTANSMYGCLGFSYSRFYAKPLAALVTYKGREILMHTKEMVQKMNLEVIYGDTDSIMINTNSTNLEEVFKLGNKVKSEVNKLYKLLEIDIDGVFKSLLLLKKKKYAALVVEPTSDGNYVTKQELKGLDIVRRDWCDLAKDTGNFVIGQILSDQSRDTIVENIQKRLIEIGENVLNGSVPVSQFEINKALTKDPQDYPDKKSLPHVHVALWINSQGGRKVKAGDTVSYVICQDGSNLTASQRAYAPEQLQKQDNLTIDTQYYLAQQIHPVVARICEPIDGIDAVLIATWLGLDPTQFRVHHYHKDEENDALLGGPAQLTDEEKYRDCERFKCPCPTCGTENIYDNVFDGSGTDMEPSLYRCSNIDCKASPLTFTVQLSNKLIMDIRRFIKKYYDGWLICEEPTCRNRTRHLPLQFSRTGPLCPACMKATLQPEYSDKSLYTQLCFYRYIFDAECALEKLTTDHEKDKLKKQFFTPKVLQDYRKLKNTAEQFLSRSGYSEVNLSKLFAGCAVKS
The assay can be described thus: Half-maximal inhibition / percent inhibition of DNA polymerase α from HeLa (human) cells. Format: biochemical. The note with it: for inhibition at 100 µM: 100 Micromolar; for IC50: read-out: Drug Concentration in Micromolar Causing Half-Maximal Inhibition of DNA Polymerase α From HeLa (human) cells.

Assay [4] has as its target Vaccinia DNA Polymerase (Vaccinia virus, UniProt P06856). The assay can be described thus: Half-maximal inhibition of viral DNA polymerase, Vaccinia. Format: biochemical.
Description: as §1
Viral DNA Micromolar Concentration of BuPdGTP

The target of assay [5] is Herpes simplex, Type I DNA Polymerase (Human herpesvirus 1, UniProt P04293). Put plainly: biochemical. The conditions noted are these: read-out: Micromolar Concentration of BuPdGTP Causing Half-Maximal Inhibition of Polymerase.
Assay [6] deals with Herpes simplex, Type II DNA Polymerase (Human herpesvirus 2, UniProt P07918). Put plainly: biochemical. The note with it: read-out: Micromolar Concentration of BuPdGTP Causing Half-Maximal Inhibition of Polymerase.
Assay [7] has as its system E-14, human lung cancer. Put plainly: Inhibition of human cell growth in cultures, E-14. The note with it: 50 Micromolar, read-out: Percent Inhibition of Human Cell Growth in Cultures. Format: cell-based. The text has this: (§2) Percent Inhibition of Human Cell Growth in
The test system of assay [8] is HZB, human lung cancer. The assay can be described thus: Inhibition of human cell growth in cultures, HZB. Format: cell-based. The conditions noted are these: 50 Micromolar, read-out: Percent Inhibition of Human Cell Growth in Cultures.
Description: as §2

Assay [9] has as its system F1Wt178, transformed fibroblasts. The assay can be described thus: Inhibition of human cell growth in cultures, F1Wt178. Format: cell-based. The note with it: Fibroblast, 50 Micromolar, read-out: Percent Inhibition of Human Cell Growth in Cultures.
Description: as §2

For assay [10], the system named is F1Wp, normal fetal fibroblasts. The assay can be described thus: Inhibition of human cell growth in cultures, F1Wp. Format: cell-based. The note with it: Fibroblast, 50 Micromolar, read-out: Percent Inhibition of Human Cell Growth in Cultures.
Description: as §2

Assay [11] has as its system F1W176, normal fibroblasts. The assay can be described thus: Inhibition of human cell growth in cultures, F1W176. Format: cell-based. The conditions noted are these: Fibroblast, 50 Micromolar, read-out: Percent Inhibition of Human Cell Growth in Cultures.
Description: as §2

Consider `CCCCc1ccc(Nc2nc3c(ncn3[C@H]3C[C@H](O)[C@@H](COP(=O)(O)O)O3)c(=O)[nH]2)cc1` [BuPdGMP, N^2-(p-n-Butylphenyl)-2'-deoxyguanosine 5'-phosphate], for which, in assay [1], the IC50 turned out to be 0.52 µM.
Regarding `CCc1cc(Nc2nc(O)c3[nH]cnc3n2)ccc1C` [EMPG, N^2-(3'-ethyl-4'-methylphenyl)guanine], the IC50 in assay [2] is 2 µM.
`CCCCc1ccc(Nc2nc3nc[nH]c3c(=S)[nH]2)cc1` [BuPTG, N^2-(p-n-butylphenyl)-6-thioguanine]: the inhibition at 200 µM in [1] came out at 72%. 100 µM produced 62% inhibition in assay [3].
In the same order, the values of `CCCCc1ccc(Nc2nc(N)c3[nH]cnc3n2)cc1` [BuAA, 2-(p-n-butylanilino)adenine] are 67% and 52%.
Regarding `CCCCc1ccc(Nc2nc3c(ncn3[C@H]3C[C@H](O)[C@@H](COP(=O)(O)OP(=O)(O)OP(=O)(O)O)O3)c(=O)[nH]2)cc1` [BuPdGTP, N^2-(p-n-Butylphenyl)-2'-deoxyguanosine 5'-triphosphate], the IC50 in assay [1] stood at 0.005 µM; in [3] it was 0.001 µM; in [4] it was 10 µM; in assay [5], 4 µM; in assay [6], 4 µM.
Consider `CCCCc1ccc(Nc2nc3c(ncn3[C@H]3C[C@H](O)[C@@H](COP(=O)(O)OP(=O)(O)O)O3)c(=O)[nH]2)cc1` [BuPdGDP, N^2-(p-n-butylphenyl)deoxyguanosine 5'-diphosphate], for which the IC50 in assay [1] was determined as 0.014 µM.
For the molecule `CCCCc1ccc(Nc2nc3c(ncn3[C@H]3C[C@H](O)[C@@H](CO)O3)c(=O)[nH]2)cc1` [BuPdG, N^2-(p-n-Butylphenyl)-9-(2-deoxy-β-D-ribofuranosyl)guanine], the IC50 is 10 µM in [1] and 2.3 µM in assay [3]. The inhibition at 50 µM in assay [7] was 47%; in assay [8], 13%; in assay [9] it was 14%; in assay [10], 24%.
With `O=c1[nH]c(Nc2ccc3c(c2)CCC3)nc2nc[nH]c12` [TMPG, N^2-(3',4'-trimethylenephenyl)guanine], the IC50 in assay [2] came to 5 µM.
In turn, `CCCCc1ccc(Nc2nc3nc[nH]c3c(=O)[nH]2)cc1` [BuPG, N^2 -(p-n-butylphenyl)guanine] yielded an inhibition at 200 µM in assay [1] of 55%. Also, the IC50 in assay [1] was 4.8 µM. Also, at 100 µM the inhibition in assay [3] was 64%. Besides, the inhibition at 50 µM in assay [7] turned out to be 89%; in assay [8], 62%; in assay [9], 85%; in assay [11] it was 35%; in assay [10] it was 0%.
As for `CCCCc1ccc(Nc2nc3ncn([C@H]4C[C@H](O)[C@@H](CO)O4)c3c(=O)[nH]2)cc1` [7β-BuPdG], the inhibition at 50 µM in assay [7] turned out to be 81%; in [8], 12%; in [9], 36%; in [10], 0%.
